Measurements as given in patent US9243247B2, “Composition for promoting apoptosis or inhibiting cell growth, comprising epstein-barr virus microrna” (Catholic University Industry Academic Cooperation Foundation, priority 2011, dated 2016).

How the values were obtained:
Type in all cases: cell-based
AGS cell strain [1] = test: Effect on cell cycle (propidium iodide staining, FACS, sub G1); conditions: for Relative Sub G1: mimic 10 nM, 10 uM 5-FU 24 h after transfection, then 48 hours, relative to scrambled control (=1)
Method: The AGS cells were divided into a 96-well plate such that 2×10^5 AGS cells were allocated to each well, and synthesized miRNAs (10 nM) were transfected and cultured at 37° C. in an incubator. Twenty four hours after the transfection, 10 uM of 5-FU, which is an anti-cancer agent, was treated in one case or not treated in another case, and then the resulting mixture was cultured in an incubator at 37° C. for 48 hours. The cells were detached by using Trypsin-EDTA and washed with PBS two times.
Immediately after the AGS cell strains, which are EBV-negative cell strains, were divided into a 6-well plate such that 2×10^5 AGS cells were allocated to each well, a synthesized miRNA (10 nM) was transfected by using G-fectin and cultured at 37° C. in an incubator. Twenty four hours after the transfection, 10 uM of 5-FU was treated and the resulting mixture was cultured at 37° C. in an incubator for 48 hours. The cells were detached by using Trypsin-EDTA and washed with PBS two times. Afterwards, DNA was stained by propidium iodide staining and the ratio of cells where cell cycle was changed was investigated by FACS.

AGS cell strain [2] = test: Measurement of apoptosis (Annexin V staining, FACS); conditions: for Relative Apoptotic cell: mimic 10 nM, 10 uM 5-FU 24 h after transfection, then 48 hours, Annexin V, relative to scrambled control (=1), n=9; for effect on cell growth and apoptosis (summary statement): mimics transfected to AGS, tumor cell strain not infected with EBV
Method: Immediately after the AGS cell strain, which is an EBV-negative cell strain, was divided was divided into a 6-well plate such that 2×10^5 AGS cells were allocated to each well, a synthesized miRNA (10 nM) was transfected by using G-fectin and the resulting mixture was cultured at 37 t in an incubatorTwenty four hours after the transfection, 10 uM of 5-FU was treated and the resulting mixture was cultured in an incubator at 37° C. for 48 hours. The cells were detached by using Trypsin-EDTA and washed with PBS two times. Afterwards, the cells were treated with a PE Annexin V Apoptosis Detection Kit and the changed ratio of apoptotic cell was investigated by FACS (FIG. 7).
Immediately after the AGS cell strain, which is an EBV-negative cell strain, is divided into a 6-well plate such that 2×10^5 AGS cells were allocated to each well, a synthesized miRNA (10 nM) was transfected by using G-fectin and the resulting mixture was cultured at 37° C. Twenty four hours after the transfection, 10 uM of 5-FU, which is an anti-cancer agent, was treated and the resulting mixture was cultured in an incubator at 37° C. for 48 hours. The cells were detached by using Trypsin-EDTA and washed with PBS two times. Afterwards, the cells were treated with a PE Annexin V Apoptosis Detection Kit and the ratio of cells where apoptosis took place was measured by FACS.

AGS cell strain [3] = test: Cell growth test (CCK-8 assay) after transfection of BART miRNA mimics; conditions: for Relative Cell Growth: relative to scrambled control (=1)
Method: An AGS cell strain (Korean Cell Line Bank), which is a stomach cancer cell strain, was cultured in an RPMI1640 (Gibco) culture medium including 10% fetal bovine serum. Mature type synthesized BART miRNAs were transfected to the AGS cell strain by using G-fectin (Genolution) according to a protocol of the manufacture.
To investigate the effect of individual EBV BART miRNAs on the AGS cell strain, the synthesized miRNAs were transfected to the AGS cell strain and, after 72 hours, cells were counted by CCK-8 assay.
Immediately after the AGS cell strain, which is an EBV-negative cell strain, was divided into 96-well plate having 1×10^3 cells/well, a synthesized miRNA (10 nM) was transfected by using G-fectin. After the transfection, according to the experimental objective, the cells were cultured at 37° C. in an incubator, and then CCK-8 was divided among the wells by allocating 10 μl of CCK-8 to each well and the resulting mixture was cultured in an incubator at 37° C. for two hours. Then, the light absorbance was measured with an ELISA measuring instrument.
By the method described in Example 3, miR-BART5-5p mimic or miR-BART15-3p mimic (10 nM) were transfected to the AGS cell strain, and the effect thereof on cell growth was investigated over time.
miR-BART5-5p, miR-BART15-3p, and miR-BART20-3p were transfected to the AGS cell strain (1×10^3 cells/well) in a concentration of 1, 3, 10, and 30 nM, and the effect on cell growth was investigated. Immediately after the AGS cell strain was divided into a 96-well plate such that 1×10^3 AGS cells were allocated to each well, a synthesized miRNA was transfected by using G-fectin. Seventy two hours after the transfection, CCK-8 was divided among the wells by allocating 10 μl of CCK-8 to each well, and the resulting mixture was cultured at 37° C. in an incubator for two hours.

[4] = mimic 10 nM, 72 hours after transfection, n=9
[5] = AGS, mimic 10 nM in combination with 10 uM 5-FU

Substance | Relative Sub G1 (AGS cell strain [1]) | Relative Apoptotic cell (AGS cell strain [2]; AGS) | Relative Cell Growth (AGS cell strain [3]; [4]) | effect on cell growth and apoptosis (summary statement) (AGS cell strain [2]) | other results
BART1-3p: EBV BART miRNA mimic, double stranded RNA; sense SEQ NO: 11, antisense SEQ NO: 12 (sense UAGCACCGCUAUCCACUAUGUC; antisense GACAUAGUGGAUAGCGGUGCUA; chemistry not given here) | 0.7947 | 0.9231 | 1.201 | – | –
BART1-5p: EBV BART miRNA mimic, double stranded RNA; sense SEQ NO: 9, antisense SEQ NO: 10 (sense UCUUAGUGGAAGUGACGUGCUGUG; antisense CACAGCACGUCACUUCCACUAAGA; chemistry not given here) | 0.8028 | 1.08 | 1.141 | inhibit cell growth and promote apoptosis | Relative Apoptotic cell (AGS cell strain [2]; AGS, listed as 1-5p): significantly higher
BART2-3p: EBV BART miRNA mimic, double stranded RNA; sense SEQ NO: 87, antisense SEQ NO: 88 (sense AAGGAGCGAUUUGGAGAAAAUAAA; antisense UUUAUUUUCUCCAAAUCGCUCCUU; chemistry not given here) | 1.178 | 1.062 | 1.433 | inhibit cell growth and promote apoptosis | Relative Apoptotic cell (AGS cell strain [2]; AGS, listed as 2-3p): significantly higher
BART2-5p: EBV BART miRNA mimic, double stranded RNA; sense SEQ NO: 85, antisense SEQ NO: 86 (sense UAUUUUCUGCAUUCGCCCUUGC; antisense GCAAGGGCGAAUGCAGAAAAUA; chemistry not given here) | 1.092 | 1.082 | 1.085 | – | –
BART3-3p: EBV BART miRNA mimic, double stranded RNA; sense SEQ NO: 3, antisense SEQ NO: 4 (sense CGCACCACUAGUCACCAGGUGU; antisense ACACCUGGUGACUAGUGGUGCG; chemistry not given here) | 0.9648 | 1.111 | 1.135 | – | –
BART3-5p: EBV BART miRNA mimic, double stranded RNA; sense SEQ NO: 1, antisense SEQ NO: 2 (sense ACCUAGUGUUAGUGUUGUGCU; antisense AGCACAACACUAACACUAGGU; chemistry not given here) | 0.8224 | 1.016 | 1.272 | – | –
BART4-3p: EBV BART miRNA mimic, double stranded RNA; sense SEQ NO: 7, antisense SEQ NO: 8 (sense CACAUCACGUAGGCACCAGGUGU; antisense ACACCUGGUGCCUACGUGAUGUG; chemistry not given here) | 0.755 | 1.133 | 1.065 | inhibit cell growth and promote apoptosis | Relative Apoptotic cell (AGS cell strain [2]; AGS, listed as 4-3p): significantly higher
BART4-5p: EBV BART miRNA mimic, double stranded RNA; sense SEQ NO: 5, antisense SEQ NO: 6 (sense GACCUGAUGCUGCUGGUGUGCU; antisense AGCACACCAGCAGCAUCAGGUC; chemistry not given here) | 1.236 | 1.204 | 0.9348 | inhibit cell growth and promote apoptosis | Relative Sub G1 (AGS cell strain [1]; listed as miR-BART4-5p): increased; Relative Apoptotic cell (AGS cell strain [2]; AGS, listed as miR-BART4-5p): significantly higher
BART5-3p: EBV BART miRNA mimic, double stranded RNA; sense SEQ NO: 19, antisense SEQ NO: 20 (sense GUGGGCCGCUGUUCACCU; antisense AGGUGAACAGCGGCCCAC; chemistry not given here) | 0.9486 | 1.17 | 0.9583 | inhibit cell growth and promote apoptosis | –
BART5-5p: EBV BART miRNA mimic, double stranded RNA; sense SEQ NO: 17, antisense SEQ NO: 18 (sense CAAGGUGAAUAUAGCUGCCCAUCG; antisense CGAUGGGCAGCUAUAUUCACCUUG; chemistry not given here) | 2.111 | 1.325 | 0.5231 | inhibit cell growth and promote apoptosis | ratio of sub G1 after the 5-FU treatment (AGS cell strain [1]; mimic 10 nM plus 10 uM 5-FU (Example 6)): greatly increased; Relative Sub G1 (AGS cell strain [1]; listed as 5-5p): increased; ratio of early apoptotic cell (AGS cell strain [2]; [5]): increased; ratio of late apoptotic cell (AGS cell strain [2]; [5]): increased; degree of apoptosis, combination with 5-FU versus sum of single treatments (AGS cell strain [2]; AGS, mimic 10 nM plus 10 uM 5-FU): synergetic effect; ratio of early apoptotic cell (AGS cell strain [2]; AGS, mimic 10 nM treated alone): increased; ratio of late apoptotic cell (AGS cell strain [2]; AGS, mimic 10 nM treated alone): increased; Relative Apoptotic cell (AGS cell strain [2]; AGS, listed as 5-5p): significantly higher; cell growth depending on mimic concentration (onset of inhibition) (AGS cell strain [3]; 1, 3, 10 and 30 nM, 72 hours after transfection): a tendency to inhibit cell growth beginning at 10 nM; Relative Cell Growth (AGS cell strain [3]; mimic 10 nM, 72 hours after transfection, n=9, listed as miR-BART5-5p): inhibited cell growth; cell growth over time (AGS cell strain [3]; mimic 10 nM, depending on treatment time): greatly decreased cell growth
BART6-3p: EBV BART miRNA mimic, double stranded RNA; sense SEQ NO: 31, antisense SEQ NO: 32 (sense CGGGGAUCGGACUAGCCUUAGA; antisense UCUAAGGCUAGUCCGAUCCCCG; chemistry not given here) | 1.24 | 1.018 | 0.9101 | – | Relative Sub G1 (AGS cell strain [1]; listed as 6-3p): increased
BART6-5p: EBV BART miRNA mimic, double stranded RNA; sense SEQ NO: 29, antisense SEQ NO: 30 (sense UAAGGUUGGUCCAAUCCAUAGG; antisense CCUAUGGAUUGGACCAACCUUA; chemistry not given here) | 1.023 | 1.117 | 0.881 | – | –
